These results are taken from US12492186B2, “Bicyclic heterocyclic compounds useful as IRAK4 inhibitors” (BRISTOL-MYERS SQUIBB COMPANY, priority 2019, dated 2025).

Structures are written as SMILES. pEC50, pIC50: −log10 of the molar value.

For one test, the target named is IRAK4 (Homo sapiens (Human), UniProt Q9NWZ3). The experiment in a line: IRAK4 Inhibition Assay. The format is biochemical. The following applies: ATP 500 μM; IRAK4 0.6 nM; 60 min room temperature; Caliper LABCHIP 3000.
A further test has as its system Human whole blood. The experiment in a line: IRAK4 Whole Blood Assay (IL-6 levels after stimulation with TLR2 agonist lipoteichoic acid). The following applies: 10 μg/mL lipoteichoic acid, 5 hours. The format is cell-based. As for the experimental part:
Human whole blood containing the anti-coagulant ACD-A was plated in 384-well plate (25 μL/well) and incubated with compounds for 60 minutes at 37° C. in a 5% CO2 incubator. The blood was stimulated with a TLR2 agonist, 10 μg/mL final concentration of lipoteichoic acid (Invivogen, San Diego, CA) in 25 μL RPMI (Gibco) for 5 hours in a 5% CO2 incubator. At the end of the incubation, plates were centrifuged at 2300 rpm for 5 minutes. Supernatants were harvested and analyzed for IL-6 levels by Flow Cytometry beads assay (BD Biosciences, San Jose, CA).

IRAK4, sequence (Q9NWZ3 whole entry, species assumed): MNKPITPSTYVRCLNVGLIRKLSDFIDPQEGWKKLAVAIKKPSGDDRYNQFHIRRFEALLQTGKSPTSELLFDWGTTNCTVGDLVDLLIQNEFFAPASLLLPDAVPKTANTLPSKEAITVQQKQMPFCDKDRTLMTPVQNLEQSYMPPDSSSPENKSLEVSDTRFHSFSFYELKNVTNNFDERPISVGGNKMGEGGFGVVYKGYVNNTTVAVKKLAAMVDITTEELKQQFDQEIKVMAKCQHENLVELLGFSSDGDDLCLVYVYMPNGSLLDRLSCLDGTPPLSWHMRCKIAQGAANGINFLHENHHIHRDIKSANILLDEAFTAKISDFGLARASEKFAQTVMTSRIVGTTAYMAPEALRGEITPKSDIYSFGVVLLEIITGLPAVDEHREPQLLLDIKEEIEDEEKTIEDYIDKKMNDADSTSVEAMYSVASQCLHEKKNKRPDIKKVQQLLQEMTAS

Consider `CC(C)Nc1c(C(=O)NCCN2CCS(=O)(=O)CC2)cnc2ccc(-c3cn[nH]c3)cc12` [Example 94, N-(2-(1,1-dioxidothiomorpholino)ethyl)-4-(isopropylamino)-6-(1H-pyrazol-4-yl) quinoline-3-carboxamide], for which the pIC50 (usually the negative decadic logarithm of the IC50, by convention in mol/L) on IRAK4 was 8.02. For the same compound, the pEC50 (usually the EC50 on a negative log10 scale, so that one unit is a factor of ten) in the test on Human whole blood is 5.65.

Consider `CC(C)Nc1c(C(=O)NCCC(F)F)cnc2ccc(-c3cn[nH]c3)cc12` [Example 45, N-(3,3-difluoropropyl)-4-(isopropylamino)-6-(1H-pyrazol-4-yl)quinoline-3-carboxamide], for which the negative logarithm of the IC50 (pIC50) on IRAK4 is 8.04. This compound showed a pEC50 in the test on Human whole blood of 6.46.

Regarding `CC(O)CCNC(=O)c1cnc2ccc(-c3cn[nH]c3)cc2c1NC(C)C` (stereo not shown) [Example 36, N-(3-hydroxybutyl)-4-(isopropylamino)-6-(1H-pyrazol-4-yl)quinoline-3-carboxamide], the pIC50 at IRAK4 was 7.86. Besides, in the test on Human whole blood, the pEC50 was 6.12.

Regarding `CC(C)Nc1c(C(=O)NCCCc2ccncc2)cnc2ccc(-c3cn[nH]c3)cc12` [Example 114, 4-(isopropylamino)-6-(1H-pyrazol-4-yl)-N-(3-(pyridin-4-yl)propyl)quinoline-3-carboxamide], on IRAK4, the pIC50 is 8.04. The compound also gave a pEC50 with Human whole blood of 5.76.

`CC(C)Nc1c(C(=O)NCCC(C)(C)O)cnc2ccc(-c3cn[nH]c3)nc12` [Example 138, N-(3-hydroxy-3-methylbutyl)-4-(isopropylamino)-6-(1H-pyrazol-4-yl)-1,5-naphthyridine-3-carboxamide]: the pIC50 at IRAK4 is 8.57. Further, the pEC50 in the test with Human whole blood was 7.24.

Regarding `CC(C)Nc1c(C(=O)N[C@H]2CC[C@H](N)CC2)cnc2ccc(-c3cn[nH]c3)cc12` [Example 23, N-((1r,4r)-4-aminocyclohexyl)-4-(isopropylamino)-6-(1H-pyrazol-4-yl)quinoline-3-carboxamide], the pIC50 on IRAK4 is 8.14. The compound further gave a pEC50 in the test on Human whole blood of 5.77.

Consider `COC(=O)N[C@H]1CC[C@H](NC(=O)c2cnc3ccc(-c4cn[nH]c4)cc3c2NC(C)C)C1` [Example 26, methyl ((1S,3S)-3-(4-(isopropylamino)-6-(1H-pyrazol-4-yl)quinoline-3-carboxamido)cyclopentyl) carbamate], for which, at IRAK4, the pIC50 is 7.91. Also, the pEC50 in the test on Human whole blood is 5.84.

As to `CC(=O)N[C@H]1C[C@H](NC(=O)c2cnc3ccc(-c4cn[nH]c4)cc3c2NC(C)C)C1` [Example 46, N-((1r,3r)-3-acetamidocyclobutyl)-4-(isopropylamino)-6-(1H-pyrazol-4-yl)quinoline-3-carboxamide], on IRAK4, the pIC50 is 8.18. The pEC50 in the test with Human whole blood is 5.68.

`CC(C)Nc1c(C(=O)NCCC2(O)CC(F)(F)C2)cnc2ccc(-c3cn[nH]c3)cc12` [Example 42, N-(2-(3,3-difluoro-1-hydroxycyclobutyl)ethyl)-4-(isopropylamino)-6-(1H-pyrazol-4-yl)quinoline-3-carboxamide]: the pIC50 on IRAK4 is 8.60. Further, in the test with Human whole blood, the pEC50 was 6.40.

`CC(C)Nc1c(C(=O)NCCCc2csc(N)n2)cnc2ccc(-c3cn[nH]c3)cc12` [Example 113, N-(3-(2-aminothiazol-4-yl)propyl)-4-(isopropylamino)-6-(1H-pyrazol-4-yl)quinoline-3-carboxamide]: the pIC50 on IRAK4 is 8.24. This compound also gave a pEC50 with Human whole blood of 5.79.

On to `CC(=O)N1CC(n2cc(-c3cnc4ccc(-c5cn[nH]c5)cc4c3NC(C)C)nn2)C1` [Example 132, 1-(3-(4-(4-(isopropylamino)-6-(1H-pyrazol-4-yl)quinolin-3-yl)-1H-1,2,3-triazol-1-yl)azetidin-1-yl)ethan-1-one], for which the pIC50 on IRAK4 was 8.54. The compound further had a pEC50 with Human whole blood of 6.10.

With `CC(C)Nc1c(C(=O)NCCC2CC2)cnc2ccc(-c3cncs3)nc12` [Example 148, N-(2-cyclopropylethyl)-4-(isopropylamino)-6-(thiazol-5-yl)-1,5-naphthyridine-3-carboxamide], the pIC50 on IRAK4 is 7.79. Also, in the test on Human whole blood, the pEC50 was 5.27.

Take `CC1(Nc2c(C(=O)NCC3CCS(=O)(=O)C3)cnc3ccc(-c4cn[nH]c4)cc23)CC1` (stereo not shown) [Example 123, N-((1,1-dioxidotetrahydrothiophen-3-yl)methyl)-4-((1-methylcyclopropyl)amino)-6-(1H-pyrazol-4-yl)quinoline-3-carboxamide]: the pIC50 on IRAK4 is 8.39. The compound further had a pEC50 in the test on Human whole blood of 6.22.

On to `CC(C)Nc1c(C(=O)NCCC(F)(F)F)cnc2ccc(-c3cn[nH]c3)cc12` [Example 43, 4-(isopropylamino)-6-(1H-pyrazol-4-yl)-N-(3,3,3-trifluoropropyl)quinoline-3-carboxamide], for which, at IRAK4, the pIC50 was 7.84. The pEC50 in the test on Human whole blood is 6.26.

Regarding `CC1(Nc2c(C(=O)NC[C@@H](F)C(C)(C)O)cnc3ccc(-c4cn[nH]c4)cc23)CC1` [Example 121, (R)—N-(2-fluoro-3-hydroxy-3-methylbutyl)-4-((1-methylcyclopropyl)amino)-6-(1H-pyrazol-4-yl)quinoline-3-carboxamide], at IRAK4, the pIC50 was 8.57. Also, the pEC50 with Human whole blood is 6.16.

For the compound `O=C(NCCc1cccnc1)c1cnc2ccc(-c3cn[nH]c3)cc2c1NC1CC1` [Example 115, 4-(cyclopropylamino)-6-(1H-pyrazol-4-yl)-N-(2-(pyridin-3-yl)ethyl)quinoline-3-carboxamide], the pIC50 on IRAK4 was 8.36. The compound also gave a pEC50 in the test with Human whole blood of 5.96.

As to `CCNc1c(C(=O)NC[C@@H](F)C(C)(C)O)cnc2ccc(-c3cn[nH]c3)cc12` [Example 27, (R)-4-(ethylamino)-N-(2-fluoro-3-hydroxy-3-methylbutyl)-6-(1H-pyrazol-4-yl)quinoline-3-carboxamide], the pIC50 on IRAK4 is 8.05. Further, the pEC50 in the test with Human whole blood is 5.55.

As to `CC(C)Nc1c(C(=O)NCCc2ccncc2)cnc2ccc(-c3cn[nH]c3)cc12` [Example 109, 4-(isopropylamino)-6-(1H-pyrazol-4-yl)-N-(2-(pyridin-4-yl)ethyl)quinoline-3-carboxamide], on IRAK4, the pIC50 is 8.36. In the test with Human whole blood, the pEC50 was 5.63.

With `CC(C)Nc1c(C(=O)NCCC2CCNC2)cnc2ccc(-c3cn[nH]c3)cc12` (stereo not shown) [Example 97, 4-(isopropylamino)-6-(1H-pyrazol-4-yl)-N-(2-(pyrrolidin-3-yl)ethyl)quinoline-3-carboxamide], the pIC50 on IRAK4 was 8.01. In the test on Human whole blood, the pEC50 is 5.68.

`CC(C)Nc1c(C(=O)NC2CCN(Cc3ccc(F)cc3)CC2)cnc2ccc(-c3cn[nH]c3)cc12` [Example 76, N-(1-(4-fluorobenzyl)piperidin-4-yl)-4-(isopropylamino)-6-(1H-pyrazol-4-yl)quinoline-3-carboxamide]: the pIC50 on IRAK4 is 7.91. The compound also had a pEC50 in the test with Human whole blood of 5.77.

Regarding `O=C(NCCN1CCS(=O)(=O)CC1)c1cnc2ccc(-c3cn[nH]c3)cc2c1NC1CC1` [Example 117, 4-(cyclopropylamino)-N-(2-(1,1-dioxidothiomorpholino)ethyl)-6-(1H-pyrazol-4-yl)quinoline-3-carboxamide], the pIC50 on IRAK4 is 8.31. Moreover, the pEC50 in the test with Human whole blood was 5.28.

For the compound `CC(C)Nc1c(-c2cn(C3CCN(C)C3=O)nn2)cnc2ccc(-c3cn[nH]c3)cc12` (stereo not shown) [Example 136, 3-(4-(4-(isopropylamino)-6-(1H-pyrazol-4-yl)quinolin-3-yl)-1H-1,2,3-triazol-1-yl)-1-methylpyrrolidin-2-one], on IRAK4, the pIC50 was 7.94. In addition, in the test with Human whole blood, the pEC50 was 5.29.

`CCOC(=O)N1CCC(NC(=O)c2cnc3ccc(-c4cn[nH]c4)cc3c2NC(C)C)CC1` [Example 80, ethyl 4-(4-(isopropylamino)-6-(1H-pyrazol-4-yl)quinoline-3-carboxamido)piperidine-1-carboxylate]: the pIC50 at IRAK4 is 7.89. The compound further showed a pEC50 with Human whole blood of 5.88.

Take `CC1(Nc2c(C(=O)NCCc3cccnc3)cnc3ccc(-c4cn[nH]c4)cc23)CC1` [Example 122, 4-((1-methylcyclopropyl)amino)-6-(1H-pyrazol-4-yl)-N-(2-(pyridin-3-yl)ethyl)quinoline-3-carboxamide]: the pIC50 at IRAK4 was 8.60. For the same compound, in the test with Human whole blood, the pEC50 was 5.90.

For `CC(C)Nc1c(C(=O)NCCN2CCOCC2)cnc2ccc(-c3cn[nH]c3)nc12` [Example 144, 4-(isopropylamino)-N-(2-morpholinoethyl)-6-(1H-pyrazol-4-yl)-1,5-naphthyridine-3-carboxamide], the pIC50 on IRAK4 is 8.40. Besides, the negative logarithm of the EC50 (pEC50) with Human whole blood is 6.55.

On to `CC(C)Nc1c(C(=O)NCCC(F)(F)F)cnc2ccc(-c3cn[nH]c3)nc12` [Example 142, 4-(isopropylamino)-6-(1H-pyrazol-4-yl)-N-(3,3,3-trifluoropropyl)-1,5-naphthyridine-3-carboxamide], for which the pIC50 on IRAK4 is 8.19. For the same compound, in the test with Human whole blood, the pEC50 is 6.86.

Turning to `Cc1cc2ncc(C(=O)NCCC(C)(C)O)c(NC(C)C)c2cc1-c1cn[nH]c1` [Example 59, N-(3-hydroxy-3-methylbutyl)-4-(isopropylamino)-7-methyl-6-(1H-pyrazol-4-yl)quinoline-3-carboxamide], the pIC50 on IRAK4 was 7.80. In the test on Human whole blood, the pEC50 was 5.32.

With `CC(C)Nc1c(-c2cn(C3CN(CC(F)F)C3)nn2)cnc2ccc(-c3cn[nH]c3)cc12` [Example 134, 3-(1-(1-(2,2-difluoroethyl)azetidin-3-yl)-1H-1,2,3-triazol-4-yl)-N-isopropyl-6-(1H-pyrazol-4-yl)quinolin-4-amine], the pIC50 on IRAK4 was 8.20. This compound showed a pEC50 in the test on Human whole blood of 6.01.

Consider `CC1(Nc2c(C(=O)NCCN3CCS(=O)(=O)CC3)cnc3ccc(-c4cn[nH]c4)cc23)CC1` [Example 119, N-(2-(1,1-dioxidothiomorpholino)ethyl)-4-((1-methylcyclopropyl)amino)-6-(1H-pyrazol-4-yl)quinoline-3-carboxamide], for which the pIC50 on IRAK4 is 8.49. Besides, the pEC50 with Human whole blood was 5.93.
